Experimental data: patent US11802128B2, “Azetidine and pyrrolidine PARP1 inhibitors and uses thereof” (Xinthera, Inc., priority 2021, dated 2023)
Like-named read-outs stand apart in the source and are kept apart here.

What was measured:
DLD-1 BRCA2(−/−) cells = assay: Cell growth inhibition assay (CellTiter-Glo cell viability, 7 days); type: cell-based; conditions: Homo sapiens, 168 h
From the text: (§1) The objective of this study is to evaluate the effect of invention compounds on cell proliferation through the cell viability assay in DLD-1 BRCA2(−/−) and parental isogenic pair and MDA-MB-436 (mutated BRCA1) cell lines. The CellTiter-Glo (CTG) based cell viability assay is designed to determine the number of viable cells in the culture because of compound effect, by quantifying ATP, which indicates the presence of metabolically active cells.
(§2) DLD-1 BRCA2(−/−) and parental isogenic pair were cultured in RPMI 1640 supplemented with 10% fetal bovine serum (FBS), and MDA-MB-436 cells were cultured in DMEM supplemented with 10% FBS. Both are culture at 37° C. with 5% CO2. Invention compounds were distributed to the 384 well plate (Corning, 3764) using Echo acoustic liquid handler to form a 1:3 serially diluted final concentration with top dose of 10 or 30 μM. The cells were seeded into the plate in the density of 50 cells/well (DLD-1 parental), 200 cells/well (DLD-1 BRCA2−/−), or 500 cells/well (MDA-MB-436). After a short spun, the cells were cultured in a well moisturized incubator at 37° C. with 5% CO2 for 7 days without disturbance. The cell viability was measured by CellTiter Glo 2.0 assay kit (Promega, G9243), and growth inhibition rate was calculated and plotted against final compound concentration, and the data were fitted in Xfit to generate IC50.

[1] = tested on: MDA-MB-436 (mutated BRCA1) cells; assay: as above; type: cell-based; conditions: Homo sapiens, 168 h, MDA-MB-436, 7 days
From the text: as §1, §2

PARP2 = PARP2 (Homo sapiens (Human), UniProt Q9UGN5); assay: Biochemical fluorescent polarization (FP) assay, displacement of PARPi-FL; type: binding
Sequence of PARP2 (Q9UGN5 whole entry): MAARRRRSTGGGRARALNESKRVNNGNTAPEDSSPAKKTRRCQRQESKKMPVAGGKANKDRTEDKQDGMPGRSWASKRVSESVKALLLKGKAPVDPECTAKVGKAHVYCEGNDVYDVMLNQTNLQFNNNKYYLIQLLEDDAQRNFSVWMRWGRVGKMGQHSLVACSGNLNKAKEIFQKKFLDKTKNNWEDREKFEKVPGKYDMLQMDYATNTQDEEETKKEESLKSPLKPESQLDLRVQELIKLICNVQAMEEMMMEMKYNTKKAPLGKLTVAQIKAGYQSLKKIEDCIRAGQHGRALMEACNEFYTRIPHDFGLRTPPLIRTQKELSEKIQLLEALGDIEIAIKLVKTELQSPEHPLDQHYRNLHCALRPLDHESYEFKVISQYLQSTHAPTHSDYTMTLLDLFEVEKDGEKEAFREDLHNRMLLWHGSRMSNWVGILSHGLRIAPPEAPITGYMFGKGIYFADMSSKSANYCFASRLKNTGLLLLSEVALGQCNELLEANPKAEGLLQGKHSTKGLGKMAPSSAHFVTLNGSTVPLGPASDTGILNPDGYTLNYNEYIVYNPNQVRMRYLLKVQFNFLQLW
Method: (§3) The assay was performed utilizing the following method:
(§4) 100% DMSO was used for the high (with protein) and low (without protein) control samples. 20 nL of compound or DMSO alone was added to individual assay plate wells.
(§5) PARP1 and PARP2 protein were expressed, purified, and diluted in assay buffer containing 50 mM Tris pH 8.0, 0.001% Triton X-100, 10 mM MgCl2, 150 mM NaCl to a final concentration of 20 nM. The PARPi-FL was then added at a final concentration of 3 nM.
(§6) The assay plate is centrifuged at 1000 rpm for 1 min and incubated for 4 h at room temperature.
(§7) The fluorescent polarization is read using an Envision plate reader using the following settings: […]

PARP1 = PARP1 (Homo sapiens (Human), UniProt P09874); assay: as above; type: binding; conditions: 20 nM protein, 3 nM PARPi-FL, 4 h at room temperature
Sequence of PARP1 (P09874 whole entry): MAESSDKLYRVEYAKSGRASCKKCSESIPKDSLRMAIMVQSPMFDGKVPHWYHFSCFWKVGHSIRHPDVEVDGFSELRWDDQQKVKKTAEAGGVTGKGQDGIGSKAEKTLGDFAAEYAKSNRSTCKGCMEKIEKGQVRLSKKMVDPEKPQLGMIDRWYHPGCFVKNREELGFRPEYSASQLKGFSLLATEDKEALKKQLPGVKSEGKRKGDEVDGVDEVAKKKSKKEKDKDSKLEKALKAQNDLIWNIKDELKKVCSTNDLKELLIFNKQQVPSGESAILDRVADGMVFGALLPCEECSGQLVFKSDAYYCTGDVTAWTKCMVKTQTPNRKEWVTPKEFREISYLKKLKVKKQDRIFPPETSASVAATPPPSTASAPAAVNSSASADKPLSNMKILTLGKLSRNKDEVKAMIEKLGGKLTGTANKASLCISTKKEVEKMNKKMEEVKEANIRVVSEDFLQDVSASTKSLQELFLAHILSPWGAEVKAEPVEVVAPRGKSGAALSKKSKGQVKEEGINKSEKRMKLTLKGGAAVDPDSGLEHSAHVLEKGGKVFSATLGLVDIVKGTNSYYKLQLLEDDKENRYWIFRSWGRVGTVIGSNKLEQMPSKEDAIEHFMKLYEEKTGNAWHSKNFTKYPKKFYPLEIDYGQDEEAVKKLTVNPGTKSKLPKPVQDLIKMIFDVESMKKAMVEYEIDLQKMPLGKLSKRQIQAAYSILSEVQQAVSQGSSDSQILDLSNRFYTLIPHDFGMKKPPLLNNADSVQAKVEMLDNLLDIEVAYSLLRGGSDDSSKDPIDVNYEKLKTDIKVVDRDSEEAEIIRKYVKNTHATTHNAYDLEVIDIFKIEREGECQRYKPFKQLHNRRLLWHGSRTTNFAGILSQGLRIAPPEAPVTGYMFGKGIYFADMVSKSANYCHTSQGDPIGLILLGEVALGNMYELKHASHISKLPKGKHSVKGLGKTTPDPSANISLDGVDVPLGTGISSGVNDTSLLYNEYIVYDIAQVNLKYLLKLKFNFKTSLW
Method: as §3, §4, §5, §6, §7

[2] = 20 nM protein, 3 nM PARPi-FL, 4 h at room temperature, read-out: IC50 FP PARP2

Row | SMILES | EC50 (DLD-1 BRCA2(−/−) cells) | EC50 [1] | IC50 (PARP2; [2]) | IC50 (PARP1) | IC50 (PARP2)
1 | CCc1cc2ncc(CN3CC[C@@H](Oc4ccc(C(=O)NC5CC5)nc4)C3)cc2[nH]c1=O [Example 4, N-cyclopropyl-5-{[(3R)-1-[(7-ethyl-6-oxo-5H-1,5-naphthyridin-3-yl)methyl]pyrrolidin-3-yl]oxy}pyridine-2-carboxamide] | 2 nM | 1.1 nM | 11000 nM | 5.8 nM | –
2 | CNC(=O)c1ccc(O[C@H]2CN(Cc3cnc4cc(Cl)c(=O)[nH]c4c3)[C@@H]2C)cn1 [Example 77] | 3.8 nM | 1.8 nM | > 100000 nM | 3.8 nM | –
3 | CCc1cc2ncc(CN3CC(n4ccc5nc(C(=O)NC)ccc54)C3)cc2[nH]c1=O [Example 40] | 180 nM | 130 nM | 32000 nM | 5.5 nM | –
4 | CCc1cc2ncc(CN3CC[C@@H](Oc4ccc(C(=O)NC5COC5)nc4)C3)cc2[nH]c1=O [Example 33] | 4.2 nM | 3.7 nM | 33000 nM | 5.5 nM | –
5 | CCc1cc2ncc(CN3C[C@H](Oc4ccc(C(=O)NC)cc4)[C@H]3C)cc2[nH]c1=O [Example 64] | 96 nM | 43 nM | 2600 nM | > 100 nM | –
6 | Cc1cc2ncc(CN3CC[C@@H](Oc4ccc(C(=O)NC5CC5)nc4)C3)cc2[nH]c1=O [Example 7, N-cyclopropyl-5-{[(3R)-1-[(7-methyl-6-oxo-5H-1,5-naphthyridin-3-yl)methyl]pyrrolidin-3-yl]oxy}pyridine-2-carboxamide] | 13 nM | 8.3 nM | 66000 nM | 7.4 nM | –
7 | CCc1cc2ncc(CN3CC(Oc4ccc(C(=O)NC5CC5)nc4)C3)cc2[nH]c1=O [Example 21, N-cyclopropyl-5-({1-[(7-ethyl-6-oxo-5H-1,5-naphthyridin-3-yl)methyl]azetidin-3-yl}oxy)pyridine-2-carboxamide] | 1.8 nM | 1.2 nM | 14000 nM | 6.6 nM | –
8 | Cc1cc2ncc(CN3C[C@H](Oc4ccc(C(=O)NC5CC5)nc4)[C@H]3C)cc2[nH]c1=O [Example 53] | 2.2 nM | 1.3 nM | 61000 nM | 8 nM | –
9 | CCc1cc2ncc(CN3CC(Nc4ccc(C(=O)NC)nc4)C3)cc2[nH]c1=O [Example 14, 5-({1-[(7-ethyl-6-oxo-5H-1,5-naphthyridin-3-yl)methyl]azetidin-3-yl}amino)-N-methylpyridine-2-carboxamide] | 9.8 nM | 4.1 nM | 14000 nM | 5.2 nM | –
10 | Cc1cc2ncc(CN3C[C@H](Oc4ccc(C#N)cc4)[C@H]3C)cc2[nH]c1=O [Example 47] | 100 nM | 100 nM | 88000 nM | 5.8 nM | –
11 | O=C(NC1CC1)c1ccc(OC2CN(Cc3cnc4cc(C5CC5)c(=O)[nH]c4c3)C2)cn1 [Example 73] | 4.8 nM | 2.1 nM | 1700 nM | 3.6 nM | –
12 | CNC(=O)c1ccc(O[C@H]2CN(Cc3cnc4cc(C5CC5)c(=O)[nH]c4c3)[C@@H]2C)cn1 [Example 41] | 3.2 nM | 3 nM | 8300 nM | 7.6 nM | –
13 | Cc1cc2ncc(CN3C[C@H](Oc4ccc(C(=O)NC5CC(F)(F)C5)nc4)[C@H]3C)cc2[nH]c1=O [Example 80] | 4.3 nM | 1.8 nM | 5300 nM | 3.8 nM | –
14 | C[C@@H]1[C@@H](Oc2ccc(C(=O)NC3CC3)nc2)CN1Cc1cnc2cc(C3CC3)c(=O)[nH]c2c1 [Example 42] | 2.1 nM | 1.1 nM | 6300 nM | 5.8 nM | –
15 | CCNC(=O)c1ccc(OC2CN(Cc3cnc4cc(C)c(=O)[nH]c4c3)C2)cn1 [Example 56] | 45 nM | 12 nM | 76000 nM | 6.2 nM | –
16 | CNC(=O)c1ccc(O[C@@H]2CCN(Cc3cnc4cc(C5CC5)c(=O)[nH]c4c3)C2)cn1 [Example 3, 5-{[(3R)-1-[(7-cyclopropyl-6-oxo-5H-1,5-naphthyridin-3-yl)methyl]pyrrolidin-3-yl]oxy}-N-methylpyridine-2-carboxamide] | 13 nM | 4.5 nM | > 100000 nM | 6.4 nM | –

Row | SMILES | EC50 (DLD-1 BRCA2(−/−) cells) | EC50 [1] | IC50 (PARP2; [2]) | IC50 (PARP1) | IC50 (PARP2)
17 | CCc1cc2ncc(CN3C[C@H](Oc4cnc(C(=O)NC)c(F)c4)[C@H]3C)cc2[nH]c1=O [Example 38] | 2.9 nM | 2.3 nM | 10000 nM | 6.1 nM | –
18 | CCc1cc2ncc(CN3C[C@H](Oc4ccc(C(=O)NC)nc4)[C@@H]3C)cc2[nH]c1=O [Example 20, 5-(((2S,3S)-1-((7-ethyl-6-oxo-5,6-dihydro-1,5-naphthyridin-3-yl)methyl)-2-methylazetidin-3-yl)oxy)-N-methylpicolinamide] | 40 nM | 35 nM | 19000 nM | 5.6 nM | –
19 | CCc1cc2ncc(CN3CC(Oc4ccc(C#N)cc4)C3)cc2[nH]c1=O [Example 22, 4-({1-[(7-ethyl-6-oxo-5H-1,5-naphthyridin-3-yl)methyl]azetidin-3-yl}oxy)benzonitrile] | 37 nM | 27 nM | 16000 nM | 5.1 nM | –
20 | CCc1cc2ncc(CN3CC[C@@](C)(Oc4ccc(C(=O)NC)nc4)C3)cc2[nH]c1=O [Example 12, 5-{[(3R)-1-[(7-ethyl-6-oxo-5H-1,5-naphthyridin-3-yl)methyl]-3-methylpyrrolidin-3-yl]oxy}-N-methylpyridine-2-carboxamide] | 83 nM | 36 nM | 62000 nM | 6.6 nM | –
21 | [2H]C([2H])([2H])NC(=O)c1ccc(O[C@H]2CN(C([2H])([2H])c3cnc4cc(CC)c(=O)[nH]c4c3)[C@@H]2C)cn1 [Example 45] | 1.5 nM | 0.87 nM | – | 5 nM | 6900 nM
22 | CCc1cc2ncc(CN3CC[C@@H](n4ccc5nc(C(=O)NC)ccc54)C3)cc2[nH]c1=O [Example 49] | 9.2 nM | 9.5 nM | > 100000 nM | 6.3 nM | –
23 | CCc1cc2ncc(CN3C[C@H](Oc4cnc(C(=O)NC5CC5)c(F)c4)[C@H]3C)cc2[nH]c1=O [Example 66, N-cyclopropyl-5-{[(2R,3S)-1-[(7-ethyl-6-oxo-5H-1,5-naphthyridin-3-yl)methyl]-2-methylazetidin-3-yl]oxy}-3-fluoropyridine-2-carboxamide] | 2.1 nM | 1 nM | 6400 nM | 3.3 nM | –
24 | CCc1cc2ncc(CN3CC[C@@H](Oc4cnc(C(=O)NC)c(F)c4)C3)cc2[nH]c1=O [Example 27] | 19 nM | 18 nM | 9100 nM | 6.7 nM | –
25 | CNC(=O)c1ccc(O[C@H]2CN(Cc3cnc4cc(C(F)F)c(=O)[nH]c4c3)[C@@H]2C)cn1 [Example 70] | 1.3 nM | 1.1 nM | 2400 nM | 4.1 nM | –
26 | CCc1cc2ncc(CN3C[C@H](Oc4ccc(C(=O)NC5COC5)nc4)[C@H]3C)cc2[nH]c1=O [Example 44, 5-(((2R,3S)-1-((7-ethyl-6-oxo-5,6-dihydro-1,5-naphthyridin-3-yl)methyl)-2-methylazetidin-3-yl)oxy)-N-(oxetan-3-yl)picolinamide] | 3.5 nM | 1.3 nM | 11000 nM | 6.7 nM | –
27 | Cc1cc2ncc(CN3C[C@H](Oc4ccc(C#N)nc4)[C@H]3C)cc2[nH]c1=O [Example 37] | 80 nM | 66 nM | > 100000 nM | 4.5 nM | –
28 | CCNC(=O)c1ccc(OC2CN(Cc3cnc4cc(CC)c(=O)[nH]c4c3)C2)cn1 [Example 58] | 3.3 nM | 1.7 nM | 8300 nM | 6 nM | –
29 | CCc1cc2ncc(CN3CC[C@@H](Oc4ccc(C(=O)NC)nc4C#N)C3)cc2[nH]c1=O [Example 28] | 15 nM | 3.3 nM | > 100000 nM | 3.9 nM | –
30 | Cc1cc2ncc(CN3CC(Oc4ccc(C(=O)NC5CC5)nc4)C3)cc2[nH]c1=O [Example 57] | 12 nM | 6.8 nM | 47000 nM | 9.4 nM | –
31 | Cc1cc2ncc([C@@H](C)N3C[C@H](Oc4ccc(C#N)nc4)[C@H]3C)cc2[nH]c1=O (single isomer, unassigned) [Example 60] | > 1000 nM | > 1000 nM | > 100000 nM | > 100 nM | –
32 | CCc1cc2ncc(CN3C[C@H](Oc4ccc(C(=O)NC)nc4)C[C@H]3C)cc2[nH]c1=O [Example 31] | 13 nM | 31 nM | > 100000 nM | 37 nM | –
